Results as given in ChEMBL document CHEMBL1201862, “PubChem BioAssay data set” (2004).
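Results reflect a 48-hour exposure of cells in 96-well plates to compound at five concentrations. GI50: concentration for 50% inhibition of growth.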 Calls of active or inactive are those of the source. Rule as the data show it: active = GI50 up to about 1.1 µM and inactive = higher.

Legend:
Assay in all cases: NCI tumour cell line growth inhibition, 48 h
Hs-578T = test system: Hs-578T
SK-OV-3 = test system: SK-OV-3
NCI/ADR-RES = test system: NCI/ADR-RES
SR = test system: SR
KM12 = test system: KM12
UO-31 = test system: UO-31
SNB-75 = test system: SNB-75
CAKI-1 = test system: CAKI-1
RXF 393 = test system: RXF 393
HCT-116 = test system: HCT-116
NCI-H226 = test system: NCI-H226
M14 = test system: M14
SF-539 = test system: SF-539
SK-MEL-5 = test system: SK-MEL-5
RPMI-8226 = test system: RPMI-8226
ACHN = test system: ACHN
TK-10 = test system: TK-10
UACC-257 = test system: UACC-257
Malme-3M = test system: Malme-3M

| Compound | GI50 (Hs-578T) | GI50 (SK-OV-3) | GI50 (NCI/ADR-RES) | GI50 (SR) | GI50 (KM12) | GI50 (UO-31) | GI50 (SNB-75) | GI50 (CAKI-1) | GI50 (RXF 393) | GI50 (HCT-116) | GI50 (NCI-H226) | GI50 (M14) | GI50 (SF-539) | GI50 (SK-MEL-5) | GI50 (RPMI-8226) | GI50 (ACHN) | GI50 (TK-10) | GI50 (UACC-257) | GI50 (Malme-3M) |
| --- | --- | --- | --- | --- | --- | --- | --- | --- | --- | --- | --- | --- | --- | --- | --- | --- | --- | --- | --- |
| C=C1C(=O)O[C@H]2[C@@H](O)[C@H](C)CCC[C@]3(C)O[C@H]3CC[C@@]3(C)O[C@@H]3C[C@@H]12 | 7.59 µM (inactive) | 10.1 µM (inactive) | 7.73 µM (inactive) | 1.43 µM (inactive) | 7.94 µM (inactive) | 6.04 µM (inactive) | 6.9 µM (inactive) | 6.22 µM (inactive) | 1.67 µM (inactive) | 1.75 µM (inactive) | 7.43 µM (inactive) | 6.11 µM (inactive) | 6.81 µM (inactive) | 4.04 µM (inactive) | 2.15 µM (inactive) |  |  |  |  |
| O=S(=O)(O)c1ccc(/N=N/c2ccccc2)cc1 | > 100 µM (inactive) | > 100 µM (inactive) | > 100 µM (inactive) | > 100 µM (inactive) | > 100 µM (inactive) | > 100 µM (inactive) |  | > 100 µM (inactive) | > 100 µM (inactive) | > 100 µM (inactive) | > 100 µM (inactive) | > 100 µM (inactive) | > 100 µM (inactive) | > 100 µM (inactive) | > 100 µM (inactive) | > 100 µM (inactive) | > 100 µM (inactive) | > 100 µM (inactive) |  |
| C=C(Br)COc1ccc2c(C)cc(=O)oc2c1 | 90.6 µM (inactive) |  | 47.4 µM (inactive) | 44.2 µM (inactive) | 0.319 µM (active) | 64.1 µM (inactive) |  | 99.1 µM (inactive) | 0.0721 µM (active) | 59.3 µM (inactive) | > 100 µM (inactive) | > 100 µM (inactive) | 67 µM (inactive) | 14.6 µM (inactive) | 44.6 µM (inactive) | 60.5 µM (inactive) | 45.9 µM (inactive) | 73.5 µM (inactive) | > 100 µM (inactive) |
| NC(=S)N1N=C(c2ccccc2O)CC1c1ccccc1 (stereo unspecified) | 20.7 µM (inactive) | 13.9 µM (inactive) | 6.35 µM (inactive) |  | 7.4 µM (inactive) | 19.3 µM (inactive) | 16.9 µM (inactive) | 27.9 µM (inactive) | 12.4 µM (inactive) | 12.8 µM (inactive) | 15 µM (inactive) | 11.3 µM (inactive) | 11.8 µM (inactive) | 10.2 µM (inactive) | 11.6 µM (inactive) | 23.3 µM (inactive) | 20.1 µM (inactive) | 15.3 µM (inactive) | 16.1 µM (inactive) |
| C[C@H](c1ccccc1)n1c(N)c(-c2nc3ccccc3s2)c2ccc([N+](=O)[O-])cc2c1=O | 2.58 µM (inactive) | 8.99 µM (inactive) | 2.84 µM (inactive) | 1.44 µM (inactive) | 4.45 µM (inactive) | 3.83 µM (inactive) | 4.58 µM (inactive) | 15.4 µM (inactive) |  | 1.91 µM (inactive) | 4.65 µM (inactive) | 14.8 µM (inactive) | 16.9 µM (inactive) | 4.8 µM (inactive) | 0.324 µM (active) | 10.1 µM (inactive) | 10.2 µM (inactive) | 11.8 µM (inactive) | 12.9 µM (inactive) |
| COc1ccc(N2C(=O)C3c4[nH]c5ccccc5c4C4C(C)CCCC4C3C2=O)cc1 (stereo unspecified) | 19.8 µM (inactive) | > 81.3 µM (inactive) | 14.9 µM (inactive) |  | 13.8 µM (inactive) | > 76.7 µM (inactive) | 19.7 µM (inactive) | 36.1 µM (inactive) | > 26.6 µM (inactive) | 13 µM (inactive) | 41.3 µM (inactive) | > 41.5 µM (inactive) | > 43.4 µM (inactive) | 35 µM (inactive) | 12.8 µM (inactive) | 47.8 µM (inactive) | > 88.3 µM (inactive) | 39.3 µM (inactive) | 8.69 µM (inactive) |
| CCOP(=O)(OCC)C1CC(O)CN1OC(=O)C(C)(C)C (stereo unspecified) | > 100 µM (inactive) | > 100 µM (inactive) | > 100 µM (inactive) | > 100 µM (inactive) | > 100 µM (inactive) | > 100 µM (inactive) | > 100 µM (inactive) |  |  | > 100 µM (inactive) | > 100 µM (inactive) | > 100 µM (inactive) |  | > 100 µM (inactive) | > 100 µM (inactive) | > 100 µM (inactive) | > 100 µM (inactive) | > 100 µM (inactive) | > 100 µM (inactive) |
| COc1ccc(/N=C2\C(=N/c3ccc(OC)cc3)N(c3ccccc3[N+](=O)[O-])C(=S)N2c2ccc(OC)cc2)cc1 | > 100 µM (inactive) | > 100 µM (inactive) | > 100 µM (inactive) | > 100 µM (inactive) | > 100 µM (inactive) | 78 µM (inactive) | > 100 µM (inactive) | 81.5 µM (inactive) | 23.9 µM (inactive) | 35.6 µM (inactive) | 61.9 µM (inactive) | > 100 µM (inactive) | > 100 µM (inactive) | 35.2 µM (inactive) | > 100 µM (inactive) | > 100 µM (inactive) | > 100 µM (inactive) |  |  |
| COC(=O)C1CCC(=O)N1C(c1cc(OC)c(OC)c(OC)c1)c1cccc2ccccc12 (stereo unspecified) | 6.44 µM (inactive) | 25.4 µM (inactive) | 39 µM (inactive) | 32.7 µM (inactive) | > 100 µM (inactive) | 61.2 µM (inactive) | 61 µM (inactive) |  |  | > 100 µM (inactive) | > 100 µM (inactive) | > 100 µM (inactive) | > 100 µM (inactive) |  | 76.6 µM (inactive) | > 100 µM (inactive) | > 100 µM (inactive) | > 100 µM (inactive) |  |
| CCCCC[C@@H]1OC(=O)[C@@]2(CC3c4ccccc4C2c2ccccc23)[C@H]1C(=O)OC | > 100 µM (inactive) | 84.7 µM (inactive) | 64.6 µM (inactive) | 10.1 µM (inactive) | 45.7 µM (inactive) | 85.3 µM (inactive) |  | 42.6 µM (inactive) | 24.6 µM (inactive) | 12.4 µM (inactive) |  | 55.2 µM (inactive) |  | 17.2 µM (inactive) | 9.68 µM (inactive) | 45.5 µM (inactive) | 35.9 µM (inactive) | 14.5 µM (inactive) | 53.2 µM (inactive) |
| Cc1cc(Cc2c(F)c(F)c(Cc3cc(C)no3)c(F)c2F)on1 | 29.9 µM (inactive) | 38.5 µM (inactive) | > 100 µM (inactive) |  |  | > 100 µM (inactive) | 29 µM (inactive) | 12.2 µM (inactive) | 33 µM (inactive) | > 100 µM (inactive) | > 100 µM (inactive) | > 100 µM (inactive) | 47.6 µM (inactive) | 28.4 µM (inactive) | > 100 µM (inactive) | > 100 µM (inactive) | 54.2 µM (inactive) | > 100 µM (inactive) | > 100 µM (inactive) |
| [C-]#[N+]C1(C(=O)OCC)CC1 | > 100 µM (inactive) |  | > 100 µM (inactive) | > 100 µM (inactive) |  |  | > 100 µM (inactive) |  | > 100 µM (inactive) | > 100 µM (inactive) | > 100 µM (inactive) | > 100 µM (inactive) | > 100 µM (inactive) | > 100 µM (inactive) | > 100 µM (inactive) | > 100 µM (inactive) | > 100 µM (inactive) | > 100 µM (inactive) | > 100 µM (inactive) |
| O=P1(O)c2ccccc2CSCc2ccccc21 | > 100 µM (inactive) | > 100 µM (inactive) | > 100 µM (inactive) | > 100 µM (inactive) | > 100 µM (inactive) | > 100 µM (inactive) |  | > 100 µM (inactive) | > 100 µM (inactive) | > 100 µM (inactive) | > 100 µM (inactive) | > 100 µM (inactive) | > 100 µM (inactive) | > 100 µM (inactive) |  | > 100 µM (inactive) | > 100 µM (inactive) | > 100 µM (inactive) |  |
| COc1cccc(/N=N/C(=NNC(=O)c2ccc(C)cc2)c2ccc(N(C)C)cc2)c1 | > 100 µM (inactive) | > 100 µM (inactive) | > 100 µM (inactive) | 62.5 µM (inactive) | > 100 µM (inactive) | > 100 µM (inactive) |  | > 100 µM (inactive) |  | > 100 µM (inactive) | > 100 µM (inactive) | > 100 µM (inactive) | > 100 µM (inactive) | 98.2 µM (inactive) | > 100 µM (inactive) | > 100 µM (inactive) | > 100 µM (inactive) | > 100 µM (inactive) |  |
| COc1cc2ccnc3c2c(c1O)N(C)C=C3 | 18.7 µM (inactive) | 13.4 µM (inactive) | 18.7 µM (inactive) |  | 19.4 µM (inactive) | 7.66 µM (inactive) | 21.5 µM (inactive) | 4.92 µM (inactive) | 14.3 µM (inactive) | 4 µM (inactive) | 18 µM (inactive) | 17 µM (inactive) |  | 12.8 µM (inactive) | 4.18 µM (inactive) | 9.48 µM (inactive) | 16.2 µM (inactive) | 15.6 µM (inactive) | 6.12 µM (inactive) |
| COc1cc(O)c(C(=O)/C=C/c2ccc(O)cc2)cc1Oc1ccc(/C=C/C(=O)c2ccc(O)cc2O)cc1 [RHUSCHALCONE III] | 14.4 µM (inactive) | 8.36 µM (inactive) | 10.1 µM (inactive) | 5.01 µM (inactive) | 6.75 µM (inactive) | 9.48 µM (inactive) | 12.6 µM (inactive) | 14.2 µM (inactive) | 8.2 µM (inactive) | 7.85 µM (inactive) |  | 9.62 µM (inactive) | 8.89 µM (inactive) | 7.36 µM (inactive) | 6.79 µM (inactive) | 8.75 µM (inactive) | 9.79 µM (inactive) | 10.1 µM (inactive) | 8.38 µM (inactive) |
